18 molecules from patent US20140179681A1, “METHODS AND COMPOSITIONS OF TARGETED DRUG DEVELOPMENT” (priority 2010, published 2014) can be followed below.

One test addresses T1, EGFR (Homo sapiens, UniProt P00533).
T1 construct: host or cells: A431
In words: EGFR in-cell Western (ICW) screening protocol (EGFR inhibition assay). Further details: ICW 1 / ICW 2 / ICW Avg: unit not given here. Format: cell-based. Conditions: for ICW Avg / ICW 1 / ICW 2: ICW assay; for ICW Avg: average of runs 1 and 2; for ICW 1: run 1; for ICW 2: run 2; for ICW assay: Table 10, % Inhibition of EGF dependent EGFR phosphorylation in A431 cells, compound 125 μM in assay. On the procedure: The following example describes general EGFR in-cell Western (ICW) screening protocol. Methods are according to Chen et al. (2005) Analytical Biochemistry 338, 136-142 (incorporated herein by reference), except as otherwise noted.
Cell Plates: A431 cells (ATCC # CRL-1555) were grown in Dulbecco's Modified Eagle Medium (DMEM; ATCC #30-2002) supplemented with 10% fetal bovine serum, 105 units/ml pen/strep (Invitrogen #15140155) and 2.1 mM L-glutamine (ATCC #30-2214). Cells were seeded into 96 well tissue culture plates (BD Falcon #353948) at a density of 30,000 cells per well and incubated at 37° C. with 5% CO2 overnight. Two cell plates were prepared for each compound plate.
Serum Starvation: The cells were serum starved prior to compound addition. The media was removed by aspiration and the cells washed with PBS (200 μl/well; Invitrogen #20012-027). The PBS was removed by aspiration and replaced with 200 μl of DMEM (ATCC #30-2002) supplemented with 105 units/ml pen/strep (Invitrogen #15140155) and 2.1 mM 1-glutamine (ATCC #30-2214). The cell plates were incubated at 37° C./5% CO2 for 2 hours.
Compound Plate Preparation: The test compounds were solvated in 100% DMSO (Sigma #472301-2L) at a concentration of 25 mM. Compounds found not to be completely soluble in 100% DMSO at 25 mM were diluted to 10 mM with 100% DMSO and TFA (Fluka #91699) added to a final concentration of 0.2%. 40 μl of test compound was added to the appropriate well of a 96 well plate (Falcon #351190). As controls, 6 μM EGFR kinase inhibitor PD168393 (EMD/Calbiochem #513033) in 100% DMSO and DMSO alone were added to various wells. Prepared compound plates were stored at RT prior to use and at 4° C. long term.
Compound Dilution Plate Preparation: 250 μl of DMEM supplemented with 1 mg/ml BSA (Sigma A3059-10G) was added to the appropriate wells of a 96 well plate to prepare the compound dilution plates. Using a multichannel pipettor, 1.25 μl of compound from the compound plate was transferred into the compound dilution plate.
Compound Addition: The starve media was removed from the cell plates by aspiration. Using a multichannel pipettor, the compound dilution plates were mixed by pipetting up and down three times. 50 μl of mixed, diluted compound was added to each of two rows/columns on each of two cell plates. The cell plates with compound were incubated at 37° C./5% CO2 for 4 hours.
EGF Addition: 20 ng/ml EGF (Upstate #01-107) was prepared in DMEM supplemented with 1 mg/ml BSA. 50 μl of 20 or 0 ng/ml EGF was added to the appropriate wells without the removal of compound. The compound and EGF were mixed by pipetting up and down three times. The plates were incubated at 37° C./5% CO2 for 10 min. In some screening assays the final concentration of EGF used for simulation was 6.6, or 12.5 ng/ml rather than 10 ng/ml.
Fixation and Triton Washing: The EGF+compound was removed by aspiration and 150 μl of freshly prepared Fixation Solution (1×PBS, Sigma P3813-10PK, and 4% Formaldehyde, Pierce #28908) was immediately added. The plates were incubated at RT for 20 min without shaking. The Fixation Solution was removed by aspiration and the plates washed four times with 200 μl each of Triton Wash Solution (1×PBS, Sigma P3813-10PK, and 0.1% Triton X-100, T8787-50ML) for 5 min with gentle shaking.
Blocking and Probing: Following the last Triton Wash, the plates were blocked for 1.5 h at RT with shaking using 150 μl of Odyssey Blocking Buffer (LI-COR #927-40000). The block was removed by aspiration and 50 μl of diluted primary Ab mix was added. The plates were incubated at 4° C. overnight with gentle shaking. The plates were washed five times with 200 μl of PBST (1×PBS, Sigma P3813-10PK, and 0.1% Tween-20, Sigma P9416-50ML) for 5 min each with shaking 50 μl of diluted secondary Ab mix was added and the plates incubated at RT for 1 h with shaking. The plates were washed 5× with 200 μl of PBST for 5 min each with shaking. […]

Test [1] has as its system epithelial carcinoma A431 cell line. Briefly: MTT Cell Proliferation Assay, A431 cells. Conditions: for MTT Assay IC50(A431/MDBK): A431: A431 cells; for MTT assay, % at 2.6 microMolar: cell line not stated. Format: cell-based. From the text:
The following example describes the MTT Cell Proliferation Assay.
The MTT Cell Proliferation Assay is a colorimetric assay system that measures the reduction of the tetrazolium salt MTT (3-(4,5-dimethylthiazol-2-yl)-2,5-diphenyltetrazolium bromide) into insoluble formazan crystals, produced by the mitochondria of viable cells. […] The color can then be quantified by spectrophotometric means. Among the applications for the method are drug sensitivity, cytotoxicity, response to growth factors, and cell activation. The reduction of tetrazolium salts is now recognized as a safe, accurate alternative to radiometric testing.
Two replicates on each cell plate and 2 duplicate plates gave 4 individual replicates of each concentration, in each cell line. Concentrations were diluted in 100% DMSO from 25 mM stocks.
Twelve 96 well plates of each cell line were plated. Plating was done by dislodging cells as in passage protocol, counting on a hemocytometer, re-suspending in standard growth media, and plating using a multichannel pippetor.
16 μl of 25 mM stock+34 μl DMSO=8 mM starting concentrations, and serial diluted as with test compounds in same plate. […] Two replicates of each concentrations was run on each cell plate. All compound addition and cell treatments were done using aseptic technique under a laminar flow aseptic hood.
Control: 0.5% DMSO in treatment media was used as the control.
MTT dye (Thiazolyl Blue Tetrazolium Bromide, Sigma cat #M5655) stock was prepared in bulk and stored at 4° C. for use: 5 mgs/ml sterile PDS, shielded from light. 4 ul of this stock per 100 uls treatment media per well was used.
Plates were incubated overnight prior to treatment, with treatment day=Day 0. Compound treatments were prepared prior to washing cells to minimize time cells were dry at room temperature after final aspiration. Compounds were diluted in 100% DMSO in 96 well polypropylene plates: 40 μl 25 mM stock+10 μl DMSO=20 mM; 20 μl of 20 mM+30 μl DMSO=8 mM; 20 μl of 8 mM+30 μl DMSO=3.2 mM; 20 μl of 3.2 mM+30 μl DMSO=1.3 mM; 20 μl of 1.3 mM+30 μl DMSO=0.51 mM.
5.0 μl/ml were added to treatment media, in sterile, 2.2 ml deep well plates=0.5% dmso final. Ten μl of each dmso concentration was added to 2.0 ml of treatment media and then mixed using a 1200 μl multichannel pipettor. Cell plates were treated from the deep well plates. Treatment media was standard growth media containing 0.5% FBS and standard additions. This reduced FBS concentration allowed for a slower growth rate in cells.
Media was aspirated from cell plates, and washed with 200 μl/well sterile PBS. Aspirated PBS wash, and cell plates were treated with 200 μl of compound/treatment media per well, and incubated at 37° C., 5% CO2 for 3 days.
Prior to harvesting, visual observations were made under an inverted microscope. Plates were harvested by: aspirating the growth media; adding back MTT dye/100 μl treatment media; and incubating plates at 37° C. for 1 hour. MTT dye was aspirated. 100 μl/well dmso was added, and then shaken on a Bellco plate shaker for 5 minutes, at 4.5 setting.
Plates were read in a Tecan Sunrize UV plate reader, at 560 nm. Settings: Read mode, Outside Normal 2 sec; Shake settle time 3 sec. Data is reported as % inhibition, calculated for individual plates using control values from that plate.
(In general: Tetrazolium dyes change colour on reduction, which living cells bring about.)

The mark [2] stands for this setting: first value of 'a/b (c)', taken as A431 cells.

Where a name gives a salt, the structure may show the parent alone. Read-outs that look alike come from different tables or passages of the source.

T1 sequence (P00533 25-1210): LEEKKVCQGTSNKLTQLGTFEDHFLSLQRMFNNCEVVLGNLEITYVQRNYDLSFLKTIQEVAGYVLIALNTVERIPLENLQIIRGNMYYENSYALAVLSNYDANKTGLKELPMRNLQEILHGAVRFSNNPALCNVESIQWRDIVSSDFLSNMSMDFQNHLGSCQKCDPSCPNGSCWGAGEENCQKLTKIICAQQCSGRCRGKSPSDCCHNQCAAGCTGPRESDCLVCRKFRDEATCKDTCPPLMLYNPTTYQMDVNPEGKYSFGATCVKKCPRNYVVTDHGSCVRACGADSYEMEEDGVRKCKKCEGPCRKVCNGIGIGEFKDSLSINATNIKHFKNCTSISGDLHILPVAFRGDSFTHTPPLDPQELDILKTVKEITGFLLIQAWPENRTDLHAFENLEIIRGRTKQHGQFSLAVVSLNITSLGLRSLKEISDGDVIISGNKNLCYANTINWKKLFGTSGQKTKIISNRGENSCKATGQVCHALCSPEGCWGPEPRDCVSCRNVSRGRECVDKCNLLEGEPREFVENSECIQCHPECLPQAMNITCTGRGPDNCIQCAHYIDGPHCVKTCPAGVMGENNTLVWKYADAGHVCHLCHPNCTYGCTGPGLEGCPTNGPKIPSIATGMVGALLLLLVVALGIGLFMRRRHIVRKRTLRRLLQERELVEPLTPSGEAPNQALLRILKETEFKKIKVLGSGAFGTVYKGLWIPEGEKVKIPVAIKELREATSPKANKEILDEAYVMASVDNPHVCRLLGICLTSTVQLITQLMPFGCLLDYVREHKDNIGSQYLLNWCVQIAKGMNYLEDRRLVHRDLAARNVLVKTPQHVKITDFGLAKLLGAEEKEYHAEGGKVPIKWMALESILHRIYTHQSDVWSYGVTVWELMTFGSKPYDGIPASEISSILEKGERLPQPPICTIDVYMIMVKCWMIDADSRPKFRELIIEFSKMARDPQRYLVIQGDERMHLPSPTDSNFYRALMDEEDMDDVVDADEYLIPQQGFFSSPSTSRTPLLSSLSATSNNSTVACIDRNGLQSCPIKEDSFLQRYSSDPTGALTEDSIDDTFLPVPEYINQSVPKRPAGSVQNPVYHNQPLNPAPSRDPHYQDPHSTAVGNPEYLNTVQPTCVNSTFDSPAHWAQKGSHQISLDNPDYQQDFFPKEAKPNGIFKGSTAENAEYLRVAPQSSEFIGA

With `COc1ccc(C2CC(=O)c3cnc(Nc4nc(-c5ccccc5)c5ccccc5n4)nc3C2)cc1` (centres unmarked) [11663 + TFA], at EGFR, the “ICW Avg” value was 26.73, the “ICW 1” value amounted to 31.73 and the “ICW 2” value came out at 21.73. Further, the “MTT Assay IC50(A431/MDBK): A431” value in test [1] (first value of cell) is reported as “non-convergent”.
For `Cc1ccc(C2CC(=O)c3cnc(Nc4nc(C)c5cccc(C)c5n4)nc3C2)cc1` (centres unmarked) [11673 + TFA], in that order: 25.35, 33.30, 17.39 and “non-convergent”.
Consider `Cc1ccc2c(C)nc(Nc3nc(C)cc(=O)[nH]3)nc2c1` [11725 + TFA], for which, at EGFR, the “ICW Avg” value turned out to be 28.93, the “ICW 1” value was 26.65 and the “ICW 2” value was 31.20. Also, the IC50 in test [1] (Homo sapiens, A-431, A431 cells, first value of cell, read-out: MTT Assay IC50(A431/MDBK): A431) is 13 µM.
Regarding `Cc1cc(C)c2nc(Nc3nc(CSc4ccc(Cl)cc4)cc(=O)[nH]3)nc(C)c2c1` [11726 + TFA], at EGFR, the “ICW Avg” value is reported as 30.87, the “ICW 1” value stood at 35.72 and the “ICW 2” value is reported as 26.02. Moreover, in test [1] (first value of cell), the “MTT Assay IC50(A431/MDBK): A431” value is “NOT ACTIVE”.
For `CCOc1cccc2c(C)nc(Nc3nc(C)c(Cc4ccc(C)cc4)c(=O)[nH]3)nc12` [11753 + TFA], in that order: 44.86, 42.44, 47.28 and “NOT ACTIVE”.
For the molecule `CC(C)C(=O)NC(=S)Nc1ccc(S(=O)(=O)N2CCCC2)cc1` [AD4-11970], the “ICW Screen (ICW Inhibition)” value against EGFR was 43.246. For the same molecule, the “MTT Screen, first value of cell” value in test [1] (setting [2]) is given as “non- conver- gent”.
On the same counts, the results for `CC(C)C(=O)NC(=S)Nc1ccc(S(=O)(=O)N(C)c2ccccc2)cc1` [AD4-12042] are 34.592 and “non- conver- gent”.
On the same counts, the results for `COC(=O)CCC(=O)NC(=S)Nc1ccc(S(=O)(=O)Nc2cc(C)cc(C)c2)cc1` [AD4-12093] are 29.436 and “non- conver- gent”.
Take `CN(c1ccccc1)S(=O)(=O)c1ccc(NC(=S)NC(=O)C2CC2)cc1` [AD4-12164]: the “ICW Screen (ICW Inhibition)” value at EGFR is 45.64. The IC50 is 50.6 µM in test [1] (Homo sapiens, A-431, first value of 'a/b (c)', taken as A431 cells, read-out: MTT Screen, first value of cell) and 51.4 µM in test [1] (first value of 'a/b (c)', taken as A431 cells, read-out: MTT Screen, first value of cell).
Regarding `O=S(=O)(c1ccc(NC(=S)Nc2cccc(C(F)(F)F)c2)cc1)N1CCc2ccccc21` [AD4-12239], the ICW assay on EGFR worked out at 67.8291. In addition, the “MTT assay, % at 2.6 microMolar” value in test [1] (Table 10) was found to be 58%.
For the molecule `CCCC(=O)NC(=S)Nc1ccc(S(=O)(=O)Nc2cc(C)on2)cc1` [AD4-12267], on EGFR, the “ICW Screen (ICW Inhibition)” value is reported as 30.36. The “MTT Screen, first value of cell” value in test [1] (setting [2]) is listed as “non- conver- gent”.
For `CN(c1ccccc1)S(=O)(=O)c1ccc(NC(=S)NC(=O)/C=C/c2cccs2)cc1` [AD4-12288], in that order: 35.584 and “non- conver- gent”.
Regarding `Cc1cc(C)c2nc(NC3=NC(c4ccccc4)CC(=O)N3)nc(C)c2c1` (centres unmarked) [AD4-12641 + TFA], at EGFR, the “ICW Avg” value was 72.20, the “ICW 1” value came out at 70.26 and the “ICW 2” value is given as 74.15. Also, in test [1] (first value of cell), the “MTT Assay IC50(A431/MDBK): A431” value is listed as “NOT ACTIVE”.
For `CCCc1cc(=O)[nH]c(Nc2nc(C)c3ccc(OC)cc3n2)n1` [AD4-12652 + TFA], in that order: 73.45, 82.35, 64.55 and “NOT ACTIVE”.
For the molecule `Cc1ccc(C)c(NC(=S)Nc2ccc(S(=O)(=O)N3c4ccc(F)cc4CCC3C)cc2)c1` (centres unmarked) [AD4-12824], the ICW assay against EGFR was found to be 25.9501. Moreover, in test [1] (Table 10, first of x/y(ratio): A431, three day treatment, unit not printed (doses in μM)), the “MTT assay (first value)” value is given as “Not Active”.
`CC1CCc2cc(F)ccc2N1S(=O)(=O)c1ccc(NC(=S)Nc2cc(Cl)cc(Cl)c2)cc1` (centres unmarked) [AD4-12843]: at EGFR, the ICW assay came to 43.3347. Also, the “MTT assay, % at 2.6 microMolar” value in test [1] (Table 10) was found to be 74%.
For `CC1CCc2cc(F)ccc2N1S(=O)(=O)c1ccc(NC(=S)Nc2cccc(C(F)(F)F)c2)cc1` (centres unmarked) [AD4-12846], in that order: 71.4924 and 71%.
As for `CCOc1cccc2c(C)nc(Nc3nc(-c4ccccc4)cc(=O)[nH]3)nc12` [compound 11492], on EGFR, the “ICW Avg” value was 62.29, the “ICW 1” value was found to be 53.35 and the “ICW 2” value turned out to be 71.23. For the same molecule, the “MTT Assay IC50(A431/MDBK): A431” value in test [1] (first value of cell) is given as “non-convergent”.
